Data as given in ChEMBL document CHEMBL5331145, “Discovery of a Novel Bifunctional Steroid Analog, YXG-158, as an Androgen Receptor Degrader and CYP17A1 Inhibitor for the Treatment of Enzalutamide-Resistant Prostate Cancer” (J Med Chem, 2023).
pIC50: −log10 of the molar value.

How the values were obtained:
[1] = Half life in Sprague-Dawley rat at 10 mg/kg, po measured upto 24 hrs by LC-MS/MS analysis; assay type: ADME, organism-based; conditions: in vivo
[2] = Half life in Sprague-Dawley rat at 5 mg/kg, iv measured upto 24 hrs by LC-MS/MS analysis; assay type: ADME, organism-based; conditions: in vivo
[3] = Half life in dog at 2 mg/kg, iv measured upto 24 hrs by LC-MS/MS analysis; assay type: ADME, organism-based, Canis lupus familiaris; conditions: in vivo
[4] = Tmax in Sprague-Dawley rat at 10 mg/kg, po measured upto 24 hrs by LC-MS/MS analysis; assay type: ADME, organism-based; conditions: in vivo
[5] = Cmax in Sprague-Dawley rat at 10 mg/kg, po measured upto 24 hrs by LC-MS/MS analysis; assay type: ADME, organism-based; parameters: dose 10 mg/kg, time < 24 hrs, route po; conditions: in vivo
[6] = Cmax in Sprague-Dawley rat at 5 mg/kg, iv measured upto 24 hrs by LC-MS/MS analysis; assay type: ADME, organism-based; parameters: dose 5 mg/kg, time < 24 hrs, route iv; conditions: in vivo
[7] = Cmax in dog at 2 mg/kg, iv measured upto 24 hrs by LC-MS/MS analysis; assay type: ADME, organism-based, Canis lupus familiaris; parameters: time < 24 hrs, dose 2 mg/kg, route iv; conditions: in vivo
[8] = AUC(0 to t) in Sprague-Dawley rat at 10 mg/kg, po measured upto 24 hrs by LC-MS/MS analysis; assay type: ADME, organism-based; conditions: in vivo
[9] = AUC(0 to t) in Sprague-Dawley rat at 5 mg/kg, iv measured upto 24 hrs by LC-MS/MS analysis; assay type: ADME, organism-based; conditions: in vivo
[10] = AUC(0 to t) in dog at 2 mg/kg, iv measured upto 24 hrs by LC-MS/MS analysis; assay type: ADME, organism-based, Canis lupus familiaris; conditions: in vivo
[11] = Clearance in Sprague-Dawley rat at 5 mg/kg, iv measured upto 24 hrs by LC-MS/MS analysis; assay type: ADME, organism-based; conditions: in vivo
[12] = Clearance in dog at 2 mg/kg, iv measured upto 24 hrs by LC-MS/MS analysis; assay type: ADME, organism-based, Canis lupus familiaris; conditions: in vivo
[13] = Volume of distribution at steady state in Sprague-Dawley rat at 5 mg/kg, iv measured upto 24 hrs by LC-MS/MS analysis; assay type: ADME, organism-based; conditions: in vivo, read-out: Vdss
[14] = Volume of distribution at steady state in dog at 2 mg/kg, iv measured upto 24 hrs by LC-MS/MS analysis; assay type: ADME, organism-based, Canis lupus familiaris; conditions: in vivo, read-out: Vdss
[15] = Oral bioavailability in Sprague-Dawley rat at 10 mg/kg measured upto 24 hrs by LC-MS/MS analysis; assay type: ADME, organism-based; conditions: in vivo
[16] = Cmax in dog at 10 mg/kg, po measured upto 24 hrs by LC-MS/MS analysis; assay type: ADME, organism-based, Canis lupus familiaris; parameters: dose 10 mg/kg, time < 24 hrs, route po; conditions: in vivo
[17] = Half life in dog at 10 mg/kg, po measured upto 24 hrs by LC-MS/MS analysis; assay type: ADME, organism-based, Canis lupus familiaris; conditions: in vivo
[18] = Tmax in dog at 10 mg/kg, po measured upto 24 hrs by LC-MS/MS analysis; assay type: ADME, organism-based, Canis lupus familiaris; conditions: in vivo
[19] = AUC(0 to t) in dog at 10 mg/kg, po measured upto 24 hrs by LC-MS/MS analysis; assay type: ADME, organism-based, Canis lupus familiaris; conditions: in vivo
[20] = Oral bioavailability in dog at 10 mg/kg measured upto 24 hrs by LC-MS/MS analysis; assay type: ADME, organism-based, Canis lupus familiaris; conditions: in vivo
[21] = Effect on androgen sensitive organs in testosterone propionate stimulated castrated male Sprague-Dawley rat assessed as seminal vesicles weight loss at 20 mg/kg, po administered once daily for 10 days and measured 24 hrs post last dose; assay type: functional; conditions: time 11 day
[22] = Effect on androgen sensitive organs in testosterone propionate stimulated castrated male Sprague-Dawley rat assessed as ventral prostate weight loss at 20 mg/kg, po administered once daily for 10 days and measured 24 hrs post last dose; assay type: functional; conditions: time 11 day
[23] = Antitumor activity against human LNCaP/AR cells xenografted in SCID male mouse assessed as tumor growth inhibition at 10 mg/kg, po administered once daily for 28 days and measured every 3 days; assay type: functional; conditions: time 28 day
[24] = biological target: GABA-A receptor; anion channel; test: Antagonist activity at GABA-A (unknown origin); assay type: toxicity, Homo sapiens

With `Cc1cn(C2=CCC3C4CC=C5C[C@@H](NC(=O)c6ccc(F)cc6)CC[C@]5(C)C4CC[C@]23C)cn1.Cl` (some centres undefined) the half-life [1] was 409 min, the half-life [2] was 383 min and the half-life [3] was 309 min. For the same molecule, the Tmax [4] was 49.8 min, the Cmax [5] was 8800 ng/mL and the Cmax [6] was 14300 ng/mL. It also gave a Cmax [7] of 1860 ng/mL, an AUCt [8] of 84338 h/ng/mL and an AUCt [9] of 45408 h/ng/mL. For the same molecule, the AUCt [10] was 4737 h/ng/mL, the clearance [11] was 1.82 mL/min/kg and the clearance [12] was 6.86 mL/min/kg. For the same molecule, the Vd [13] was 0.77 L/kg, the Vd [14] was 1.92 L/kg and the bioavailability [15] was 93%. For the same molecule, the Cmax [16] was 907 ng/mL, the half-life [17] was 744 min and the Tmax [18] was 6 h. For the same molecule, the AUCt [19] was 10460 h/ng/mL and the bioavailability [20] was 44%.

In the case of `CNC(=O)c1ccc(N2C(=S)N(c3ccc(C#N)c(C(F)(F)F)c3)C(=O)C2(C)C)cc1F` [ENZALUTAMIDE], the Activity [21] was -67%, the Activity [22] was -67% and the TGI [23] was 64%. The pIC50 [24] was 5.32.
